{"source": "paper PMC4413051", "about": "“Glutamate 338 is an electrostatic facilitator of C–Co bond breakage in a dynamic/electrostatic model of catalysis by ornithine aminomutase” (The Febs Journal, 2015)", "key": {"[1]": {"target": "T1, ornithine 4,5-aminomutase (OAM) (Acetoanaerobium sticklandii, UniProt E3PY95, E335A)", "T1 construct": "gene oraE", "experiment": "biochemical"}, "[2]": {"target": "T2, ornithine 4,5-aminomutase (OAM) (Acetoanaerobium sticklandii, UniProt E3PY95, E335Q)", "T2 construct": "gene oraE", "experiment": "biochemical"}, "[3]": {"target": "T3, ornithine 4,5-aminomutase (OAM) (Acetoanaerobium sticklandii, UniProt E3PY95, E335D)", "T3 construct": "gene oraE", "experiment": "biochemical"}, "[4]": {"target": "T4, ornithine 4,5-aminomutase (OAM) (Acetoanaerobium sticklandii, UniProt E3PY95)", "T4 construct": "gene oraE; recombinant, expressed from pET-OAMH2 vector and purified; holoenzyme with PLP and AdoCbl; Glu338 (TIM barrel) and Lys629 lie in OraE", "T4 sequence (E3PY95 1-740)": "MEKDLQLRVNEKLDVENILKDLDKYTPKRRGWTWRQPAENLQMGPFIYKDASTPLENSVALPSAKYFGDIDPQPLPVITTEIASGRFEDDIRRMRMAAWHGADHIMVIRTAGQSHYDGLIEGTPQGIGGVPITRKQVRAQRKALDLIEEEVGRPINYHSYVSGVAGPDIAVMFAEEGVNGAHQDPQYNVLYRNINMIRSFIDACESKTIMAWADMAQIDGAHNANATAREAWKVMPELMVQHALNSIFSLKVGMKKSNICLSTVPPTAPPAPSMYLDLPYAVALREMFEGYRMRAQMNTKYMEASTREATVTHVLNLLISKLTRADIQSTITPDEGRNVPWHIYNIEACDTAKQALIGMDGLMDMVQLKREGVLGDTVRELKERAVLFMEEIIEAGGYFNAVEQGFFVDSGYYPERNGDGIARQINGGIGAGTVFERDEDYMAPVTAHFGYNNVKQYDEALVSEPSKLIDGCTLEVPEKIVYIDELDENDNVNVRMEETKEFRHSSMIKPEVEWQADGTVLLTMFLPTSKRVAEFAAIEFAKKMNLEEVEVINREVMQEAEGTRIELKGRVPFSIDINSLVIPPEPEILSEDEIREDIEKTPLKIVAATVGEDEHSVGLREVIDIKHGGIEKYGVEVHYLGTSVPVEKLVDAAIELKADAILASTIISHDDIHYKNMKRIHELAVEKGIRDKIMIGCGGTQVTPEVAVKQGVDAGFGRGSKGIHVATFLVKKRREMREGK", "T4 sequence (E3PY96 1-121 partner)": "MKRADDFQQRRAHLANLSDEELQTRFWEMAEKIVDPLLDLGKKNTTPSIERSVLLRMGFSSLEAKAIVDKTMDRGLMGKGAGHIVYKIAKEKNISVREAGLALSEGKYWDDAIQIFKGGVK", "experiment": "anaerobic coupled DAPDH assay, NADH at […] nm", "assay_type": "biochemical", "conditions": "read-out: Ki(DAB)"}}}
{"smiles": "NCCC(N)C(=O)O", "note": "(racemic) [D,L-2,4-diaminobutyric acid]", "values": [{"measurement": "Ki", "setting": "[1]", "value": "18.8 ± 2.2", "unit": "µM"}, {"measurement": "Ki", "setting": "[2]", "value": "11.2 ± 0.1", "unit": "µM"}, {"measurement": "Ki", "setting": "[3]", "value": "15.2 ± 1.5", "unit": "µM"}, {"measurement": "Ki", "setting": "[4]", "value": "5.2 ± 0.1", "unit": "µM"}]}
